# Test results as given in EP2340832A1, “Morphinan-6-one compounds for the treatment or prevention of neurodegenerative diseases” (Universität Innsbruck, priority 2009, dated 2011).
# pIC50, pKi: −log10 of the molar value. Read-outs that look alike come from different tables or passages of the source.
# How the values were obtained:
# µ opioid receptor = µ opioid receptor (Rattus norvegicus, UniProt P33535); assay: Opioid receptor binding assay, [3H]DAMGO, rat brain membranes; set-up: Membrane fractions were prepared from Sprague-Dawley rat or guinea pig brains; from tissue; host or cells: Sprague-Dawley rat brain (without cerebella) membranes; species or system Sprague-Dawley rat
# µ opioid receptor, sequence (P33535 whole entry): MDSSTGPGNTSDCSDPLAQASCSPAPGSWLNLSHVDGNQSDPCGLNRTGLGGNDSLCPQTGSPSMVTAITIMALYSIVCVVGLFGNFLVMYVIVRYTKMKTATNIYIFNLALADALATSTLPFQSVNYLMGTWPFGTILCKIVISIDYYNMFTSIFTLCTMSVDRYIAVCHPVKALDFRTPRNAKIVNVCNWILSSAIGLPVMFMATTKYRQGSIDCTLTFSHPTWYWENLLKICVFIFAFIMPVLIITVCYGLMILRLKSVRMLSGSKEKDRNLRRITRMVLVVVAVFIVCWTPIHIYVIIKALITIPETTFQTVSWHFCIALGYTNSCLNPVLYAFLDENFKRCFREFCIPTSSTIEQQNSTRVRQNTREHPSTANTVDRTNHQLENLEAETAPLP
# Method: (§1) Briefly, brains without cerebella were homogenised on ice in 5 volumes of ice-cold 50 mM Tris-HCI buffer (pH 7.4) and diluted in 30 volumes of the same buffer. After centrifugation at 40,000 x g for 20 min at 4°C, the pellets were resuspended in 30 volumes of Tris-HCI buffer and incubated at 37 °C for 30 min (rat brain) or for 10 min (guinea pig brain). The centrifugation step was repeated and the final pellets were resuspended in 5 volumes of 50 mM Tris-HCI buffer (pH 7.4) containing 0.32 M sucrose to give a protein concentration of 4 - 6 mg/ml. Protein concentration was determined by the method of Bradford using bovine serum albumin as standard.
# (§2) Binding experiments were performed in 50 mM Tris-HCI buffer (pH 7.4) in a final volume of 1 ml containing 0.3 - 0.5 mg protein and different concentrations of the compounds. […] Guinea pig brain membranes were incubated with [^3H]U69,593 (30 min, 30 °C). Non-specific binding was determined in the presence of 10 µM unlabeled naloxone. […] Inhibition constant (Ki) values were calculated from competition binding curves using GraphPad Prism (San Diego, CA, USA) program. The values are expressed as the mean ± S.E.M of 2-4 independent experiments, each performed in duplicate.
# (§3) The morphinan-6-one compounds of the present invention were evaluated in in vitro receptor binding assays for their interaction abilities with µ, δ and k opioid receptors. […] The affinities of the compounds at k opioid receptors were determined by displacement of [^3H]U69,593 using guinea pig brain membranes.
# δ opioid receptors = molecular target: T1, δ opioid receptors (Rattus norvegicus, UniProt P33533); assay: Opioid receptor binding assay, [3H][Ile5,6]deltorphin II, rat brain membranes; set-up: species or system Sprague-Dawley rat
# T1 construct: Membrane fractions were prepared from Sprague-Dawley rat or guinea pig brains; from tissue; host or cells: Sprague-Dawley rat brain (without cerebella) membranes
# T1 sequence (P33533 whole entry): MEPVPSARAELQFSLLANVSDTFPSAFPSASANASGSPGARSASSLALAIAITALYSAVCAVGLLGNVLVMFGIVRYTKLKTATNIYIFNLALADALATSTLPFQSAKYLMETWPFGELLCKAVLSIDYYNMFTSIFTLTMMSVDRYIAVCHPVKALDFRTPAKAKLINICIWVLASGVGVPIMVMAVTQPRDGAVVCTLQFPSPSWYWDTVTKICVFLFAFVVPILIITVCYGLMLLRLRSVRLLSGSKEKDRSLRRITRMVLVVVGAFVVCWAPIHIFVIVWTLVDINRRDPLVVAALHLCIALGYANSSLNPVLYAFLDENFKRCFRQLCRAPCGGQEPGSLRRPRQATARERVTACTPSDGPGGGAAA
# Method: as §1, §2, §3
# [1] = molecular target: T2, σ receptors labelled by [^3H](+)-pentazocine (σ1) (Cavia porcellus, UniProt Q60492); assay: Sigma receptor binding assay, [3H](+)-pentazocine; set-up: species or system guinea pig
# T2 construct: from tissue; host or cells: guinea pig brain membranes
# T2 sequence (Q60492 whole entry): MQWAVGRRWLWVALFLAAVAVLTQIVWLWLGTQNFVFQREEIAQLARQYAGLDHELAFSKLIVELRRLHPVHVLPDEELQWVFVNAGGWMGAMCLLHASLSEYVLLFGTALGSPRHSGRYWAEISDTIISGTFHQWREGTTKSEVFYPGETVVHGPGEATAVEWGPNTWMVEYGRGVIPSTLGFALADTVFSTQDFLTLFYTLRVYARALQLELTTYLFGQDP
# Method: (§4) Filters were washed three times with 5 ml of ice-cold 10 mM Tris-HCI buffer (pH 8). The bound radioactivity was measured by liquid scintillation counting (Beckman Coulter™ LS6500). […] The values are expressed as the mean ± S.E.M of 2 - 4 independent experiments, each performed in duplicate.
# C57BL/6N female mice [2] = assay: Open field (locomotor activity); type: in vivo; settings: for general locomotion in the open field (move distance, move time): 10 min
# Description: Each mouse was used only once. […] . […] Thereafter it was replaced by the obturator.
# The open field consisted of a transparent plastic box with white floor (41 x 41 x 41 cm) equipped with an automated activity monitoring system (True Scan, Coulbourn Instruments, Allentown, Pennsylvania, USA). The illumination at floor level was 150 lux. Mice were individually placed into the centre of the open field and their behaviours were tracked with the activity monitoring system. The time of locomotor activity, the overall distance travelled by the mice and the fraction of locomotor activity in the center area (center distance and center time) were monitored for 10 min. The arena was thoroughly cleaned with wet paper towels and dried at the end of each test.
# Statistical analysis: All data from behavioural studies are shown as mean ± SEM. Statistical analysis was performed using the analysis of variance (ANOVA), followed by post hoc multiple comparisons Tukey-Kramer test, except comparison of alternation rates with the theoretical value of chance (defined as 50%) which was evaluated by Wilcoxon signed rank test. All statistical analyses were carried out by using the Graphpad Prism Program, version 4.0, Graphpad software, Inc.
# [3] = molecular target: T3, electric eel AChE (EC 3.1.1.7) (Electrophorus electricus, UniProt O42275); assay: Spectrophotometric assay for AChE inhibitory activity (modified Ellman's method); type: biochemical; settings: 96-well microplate, 1% DMSO; read-out: AChE inhibitory activity IC50
# T3 construct: purchased Sigma-Aldrich, Germany
# T3 sequence (O42275 24-633): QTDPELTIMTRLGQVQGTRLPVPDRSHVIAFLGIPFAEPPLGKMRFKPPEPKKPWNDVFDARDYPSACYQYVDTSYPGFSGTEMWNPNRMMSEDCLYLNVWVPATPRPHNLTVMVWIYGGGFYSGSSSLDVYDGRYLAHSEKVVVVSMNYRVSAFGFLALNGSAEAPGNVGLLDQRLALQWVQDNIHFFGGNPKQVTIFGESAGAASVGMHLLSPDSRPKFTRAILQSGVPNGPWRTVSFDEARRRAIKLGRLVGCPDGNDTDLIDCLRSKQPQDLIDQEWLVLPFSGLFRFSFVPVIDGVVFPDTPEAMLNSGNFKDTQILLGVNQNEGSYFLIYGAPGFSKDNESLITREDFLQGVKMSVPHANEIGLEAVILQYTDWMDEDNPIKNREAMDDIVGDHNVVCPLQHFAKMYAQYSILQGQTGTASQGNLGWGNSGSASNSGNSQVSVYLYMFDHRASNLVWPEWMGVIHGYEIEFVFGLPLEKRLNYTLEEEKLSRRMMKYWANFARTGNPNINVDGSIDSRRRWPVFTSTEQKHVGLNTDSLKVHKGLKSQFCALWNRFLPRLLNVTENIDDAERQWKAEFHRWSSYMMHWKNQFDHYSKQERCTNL
# [4] = molecular target: σ receptors labelled by [^3H]DTG (σ1 + σ2); assay: Sigma receptor binding assay, [3H]DTG; settings: read-out: IC50 ± SEM [^3H]DTG (σ1 + σ2); guinea pig brain membranes; compounds 1-5 tested up to 10 µM
# Method: as §4
# C57BL/6N female mice [5] = assay: Object recognition task; settings: for object recognition (memory): normal mice; for effect on scopolamine-induced impairment of object recognition: scopolamine-pretreated mice
# C57BL/6N female mice [6] = assay: T-maze continuous alternation; settings: for spontaneous alternation rate: normal mice
# [7] = tested on: extracellular ACh concentration in the nucleus accumbens; settings: for 0AUC120 min (% increase x min) Mean ± SEM: 0 to 120 min; for Increase in ACh release (Peak increase as % of basal output): nucleus accumbens
# k opioid receptors = molecular target: T4, k opioid receptors (Cavia porcellus, UniProt P41144); assay: Opioid receptor binding assay, [3H]U69,593, guinea pig brain membranes
# T4 construct: Membrane fractions were prepared from Sprague-Dawley rat or guinea pig brains; from tissue; host or cells: guinea pig brain (without cerebella) membranes
# T4 sequence (P41144 whole entry): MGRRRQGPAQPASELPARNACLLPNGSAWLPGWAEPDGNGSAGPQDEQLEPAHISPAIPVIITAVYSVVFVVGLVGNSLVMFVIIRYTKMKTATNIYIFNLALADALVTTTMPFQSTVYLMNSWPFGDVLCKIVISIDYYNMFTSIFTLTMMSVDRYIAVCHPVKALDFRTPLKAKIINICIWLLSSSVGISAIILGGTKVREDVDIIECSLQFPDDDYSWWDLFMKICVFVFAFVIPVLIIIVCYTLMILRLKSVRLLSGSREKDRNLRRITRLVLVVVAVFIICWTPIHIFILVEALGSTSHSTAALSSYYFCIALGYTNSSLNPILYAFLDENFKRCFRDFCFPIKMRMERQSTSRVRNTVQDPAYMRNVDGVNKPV
# Method: as §1, §2, §3
# [8] = scopolamine 0.033 µmol, compound 0.01 and 0.1 µmol i.c.v.
smiles,measurement,setting,value
"C=CCN1CC[C@]23CC(=O)CC[C@H]2[C@H]1Cc1cccc(OC)c13 [Compound 4, 4-methoxy-N-allylmorphinan-6-one]",pKi,µ opioid receptor,7.69
same,binding to opioid receptor µ (in words),µ opioid receptor,some µ opioid receptor affinity
same,selectivity among opioid receptor types,"µ opioid receptor; from binding, Table 3",moderate selectivity for the µ type
same,pKi,δ opioid receptors,6.50
same,pIC50,[1],< 8.00
same,"general locomotion in the open field (move distance, move time)",C57BL/6N female mice [2]; 0.1 µmol i.c.v.,did not influence
same,fraction of locomotor activity in the central zone,C57BL/6N female mice [2]; dose not given,did not influence
same,pIC50,[3],6.00
same,pIC50,[4],< 5.00
same,object recognition (memory),C57BL/6N female mice [5]; 0.05 µmol i.c.v.,small impairment of memory
same,effect on scopolamine-induced impairment of object recognition,C57BL/6N female mice [5]; 0.05 µmol i.c.v.,abolished the scopolamine-induced impairment of object recognition
same,spontaneous alternation rate,C57BL/6N female mice [6]; 0.05 µmol i.c.v.,decreased spontaneous alternation rate
same,spontaneous alternation rate,C57BL/6N female mice [6]; lower (0.001; 0.01 and 0.025 µmol) or higher doses (0.1 µmol) i.c.v.,did not exert a significant effect
same,effect on scopolamine-induced reduction in alternation,"C57BL/6N female mice [6]; scopolamine 0.033 µmol, compound 0.01 µmol i.c.v., not shown",ineffective
same,effect on scopolamine-induced reduction in alternation,"C57BL/6N female mice [6]; scopolamine 0.033 µmol, compound 0.05 µmol i.c.v.",ameliorated
same,effect on ACh in the superfusate (in words),"[7]; 0.25 µmol i.c.v., n=4, not shown",ineffective
same,effect on ACh in the superfusate (in words),[7]; 0.5 µmol i.c.v.,"short, delayed increase"
same,toxicity at higher doses,"[7]; 1 µmol and above, i.c.v., anaesthetized rats",could not be tested because of toxicity
same,0AUC120 min (% increase x min) Mean ± SEM,[7]; Dose 0.25 µmol i.c.v.,inactive
same,Increase in ACh release (Peak increase as % of basal output),[7]; Dose 0.25 µmol i.c.v.,inactive
same,0AUC120 min (% increase x min) Mean ± SEM,[7]; Dose 0.5 µmol i.c.v.,85 ± 26 % increase x min
same,Increase in ACh release (Peak increase as % of basal output),[7]; Dose 0.5 µmol i.c.v.,43 ± 19 %
same,pKi,k opioid receptors,7.48
"O=CN1CC[C@]23CC(=O)CC[C@H]2[C@H]1Cc1c(O)ccc(O)c13 [Compound 1, 1,4-dihydroxy-N-formylmorphinan-6-one]",pKi,µ opioid receptor,< 5.00
same,binding to opioid receptor µ (in words),µ opioid receptor,does not bind
same,pKi,"µ opioid receptor; read-out: Opioid binding affinities Ki µ receptor, [3H]DAMGO, rat brain membranes",< 5.00
same,pKi,δ opioid receptors,< 5.00
same,binding to opioid receptor δ (in words),δ opioid receptors,does not bind
same,pKi,"δ opioid receptors; read-out: Opioid binding affinities Ki δ receptor, [3H][Ile5,6]deltorphin II, rat brain membranes",< 5.00
same,pIC50,[1],< 5.00
same,relative center distance and move time,C57BL/6N female mice [2]; 0.01 µmol i.c.v.,had no effect
same,relative center distance and move time,C57BL/6N female mice [2]; 0.1 µmol i.c.v.,increased the relative center distance and move time significantly
same,"general locomotion in the open field (move distance, move time)",C57BL/6N female mice [2]; 0.01 and 0.1 µmol i.c.v.,did not influence
same,pIC50,[3],3.98
same,pIC50,[4],< 5.00
same,object recognition (memory),C57BL/6N female mice [5]; 0.01 µmol i.c.v.,did not influence memory
same,object recognition (memory),C57BL/6N female mice [5]; 0.1 µmol i.c.v.,significant impairment
same,effect on scopolamine-induced impairment of object recognition,C57BL/6N female mice [5]; 0.01 µmol i.c.v.,abolished the scopolamine-induced impairment of object recognition
same,spontaneous alternation rate,C57BL/6N female mice [6]; 0.01 and 0.1 µmol i.c.v.,did not influence alternation
same,effect on scopolamine-increased running time,C57BL/6N female mice [6]; [8],did not influence
same,effect on scopolamine-induced reduction in alternation,C57BL/6N female mice [6]; [8],abolished the cholinergic impairment of alternation
same,0AUC120 min (% increase x min) Mean ± SEM,[7]; Dose 0.5 µmol i.c.v.,210 ± 31 % increase x min
same,Increase in ACh release (Peak increase as % of basal output),[7]; Dose 0.5 µmol i.c.v.,65 ± 16 %
same,0AUC120 min (% increase x min) Mean ± SEM,[7]; Dose 1 µmol i.c.v.,1017 ± 214 % increase x min
same,Increase in ACh release (Peak increase as % of basal output),[7]; Dose 1 µmol i.c.v.,224 ± 39 %
same,AUC (area under the curve) of ACh (% of the basal value),[7]; dose of 1 µmol i.c.v.,1117±214%
same,"level of ACh, peak value (% of the basal value)",[7]; dose of 1 µmol i.c.v.,324±39%
same,dose dependence of the increase in extracellular brain ACh,"[7]; i.c.v., across tested doses",dose-dependent increase
same,pKi,k opioid receptors,< 5.00
same,binding to opioid receptor K (in words),k opioid receptors,does not bind
same,pKi,"k opioid receptors; read-out: Opioid binding affinities Ki κ receptor, [3H]U69,593, guinea pig brain membranes",< 5.00
